pIC50: −log10 of the molar value.
Tested on: T1, monoclonal anti-benzoylecgonine/cocaine (BEC) antibody IP3G2
T1 construct: monoclonal antibody, clone IP3G2, mouse, subtype IgG1
Assay: indirect competitive ELISA with chemiluminescence detection against BEC-BSA; also competitive immunofluorometric biosensor with Dy-654-labelled antibody
Type: binding, Mus musculus

COC(=O)[C@H]1[C@@H](OC(=O)c2ccccc2)C[C@@H]2CC[C@H]1N2C [cocaine]
pIC50: ~9.12
